± gives the expanded uncertainty stated by the source.
What was measured:
[1] = Molar enthalpy of transition or fusion; conditions: DSC
[2] = DTA

| SMILES | Molar enthalpy of transition or fusion ([1]; Crystal) [kcal/mol] | Molar enthalpy of transition or fusion ([1]; Nematic liquid crystal) [kcal/mol] | Triple point temperature ([2]; Crystal) [K] | Triple point temperature ([2]; Nematic liquid crystal) [K] |
| --- | --- | --- | --- | --- |
| CCCCCCCc1ccc(-c2ccc(C#N)cc2)cc1 [4'-heptyl-4-biphenylcarbonitrile] | 5.82 ± 0.172 | 0.198 ± 0.0382 | 305.15 ± 0.5 | 316.15 ± 0.5 |
| CCCCCc1ccc(-c2ccc(C#N)cc2)cc1 [4'-n-pentyl-4-biphenylcarbonitrile] | 3.26 ± 0.108 | 0.117 ± 0.0359 | 297.55 ± 0.5 | 308.65 ± 0.5 |

Reference: the NIST ThermoML archive (doi:10.1016/j.jct.2014.08.010)
